Test results as given in article PMC11123841, “Discovery and Synthesis of Hydroxy-L-Proline Blockers of the Neutral Amino Acid Transporters SLC1A4 (ASCT1) and SLC1A5 (ASCT2)” (Molecules, 2024).

Columns and labels:
SLC1A4 [1] = biological target: T1, SLC1A4 (Homo sapiens, UniProt P43007); assay: TEVC block of anion leak conductance in oocytes; format: cell-based; conditions: SLC1A4 (transporter not given)
T1 construct: expressed in transfected cells; host or cells: Xenopus laevis oocytes (cRNA injection)
T1 sequence (P43007 1-532): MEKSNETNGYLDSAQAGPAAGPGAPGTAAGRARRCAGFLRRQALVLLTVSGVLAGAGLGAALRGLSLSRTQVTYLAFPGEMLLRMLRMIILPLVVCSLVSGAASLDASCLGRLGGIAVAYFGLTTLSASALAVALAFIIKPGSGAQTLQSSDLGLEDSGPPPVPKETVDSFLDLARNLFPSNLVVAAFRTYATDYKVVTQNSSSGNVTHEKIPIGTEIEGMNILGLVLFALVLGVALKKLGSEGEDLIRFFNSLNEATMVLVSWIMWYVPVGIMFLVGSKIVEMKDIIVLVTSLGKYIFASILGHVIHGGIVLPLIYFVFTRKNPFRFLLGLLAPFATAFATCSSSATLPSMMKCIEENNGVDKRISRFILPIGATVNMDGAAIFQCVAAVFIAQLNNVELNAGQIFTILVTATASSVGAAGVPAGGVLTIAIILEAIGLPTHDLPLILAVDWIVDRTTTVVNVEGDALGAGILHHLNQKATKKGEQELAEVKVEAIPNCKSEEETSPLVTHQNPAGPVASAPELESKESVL
Excerpt: (§1) The currents induced by substrates and blocked by hydroxyproline analogs shared a reversal potential shown in the current/voltage relationship consistent with the conductance originating from the same ion pore (Figure 3, inset). […] The observed dose–response relationships are independent of competing substrates, and thus provide a direct measure of the equilibrium inhibition constant (Ki). Each synthetic hydroxyproline analog was functionally assessed for its capacity to inhibit SLC1A4 and SLC1A5 leak currents with affinities reported in Table 1 as determined or approximated Ki.
(§2) Two-electrode voltage clamp (TEVC) transporter currents were recorded with a GeneClamp 500 amplifier and Digidata 1320A analog–digital interface (Molecular Devices, San Jose, CA, USA). Electrodes (0.2–1.0 MΩ) were filled with 3M KCl and the recording chamber was grounded with an agar bridge. Data were acquired with Axograph (v1.7.6) and LabChart (v7) and analyzed with Kaleidagraph software (v4.1) (Synergy, Reading, PA, USA). Uncoupled anion currents associated with the transport of substrate and block of SLC1A4 or SLC1A5 mediated leak conductance were recorded in the presence of Ringer with 50% substitution of NaCl by NaSCN to amplify the non-transported anion conductance.
(§3) Figure 3 AHPCs block a leak current in SLC1A4 and SLC1A5. […] Inset (A): The current and voltage relationship for SLC1A4 currents activated by Ala or blocked by 14b are determined by subtracting voltage jumps in buffer.

mSLC1A5 = biological target: T2, mSLC1A5 (Mus musculus, UniProt P51912); assay: TEVC block of anion leak conductance in oocytes; format: cell-based; conditions: SLC1A5 (transporter not given)
T2 construct: expressed in transfected cells; host or cells: Xenopus laevis oocytes (cRNA injection)
T2 sequence (P51912 1-553): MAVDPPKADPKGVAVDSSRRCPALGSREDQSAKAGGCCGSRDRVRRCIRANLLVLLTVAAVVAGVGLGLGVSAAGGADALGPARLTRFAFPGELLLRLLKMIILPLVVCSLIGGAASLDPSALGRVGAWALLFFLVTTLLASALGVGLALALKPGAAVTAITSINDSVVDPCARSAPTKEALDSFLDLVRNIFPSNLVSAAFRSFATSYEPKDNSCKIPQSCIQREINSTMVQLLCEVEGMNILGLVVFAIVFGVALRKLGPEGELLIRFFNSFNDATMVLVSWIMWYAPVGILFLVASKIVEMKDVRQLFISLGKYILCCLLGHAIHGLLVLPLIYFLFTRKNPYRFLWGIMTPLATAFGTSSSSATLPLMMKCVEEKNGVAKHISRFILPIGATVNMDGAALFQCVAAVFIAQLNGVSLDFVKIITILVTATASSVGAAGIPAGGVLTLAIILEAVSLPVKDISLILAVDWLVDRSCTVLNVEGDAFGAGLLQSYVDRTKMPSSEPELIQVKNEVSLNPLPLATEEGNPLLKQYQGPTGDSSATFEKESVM
Excerpt: as §1, §2, §3

SLC1A5 (mASCT2) = biological target: T3, SLC1A5 (mASCT2) (Mus musculus, UniProt P51912); assay: TEVC substrate-induced SCN- anion currents in Xenopus oocytes; format: cell-based
T3 construct: expressed in transfected cells; host or cells: Xenopus laevis oocytes (cRNA injection)
T3 sequence (P51912 1-553): T2 sequence (P51912 1-553)
Protocol: (§4) Additionally, 4-HP applied at 1 mM was used to assess activity at the glutamate transporters SLC1A3 or SLC1A1.
(§5) Uptake was halted by washing 3 times with 4 °C ND96 buffer. Oocytes were then lysed in 0.1% Triton X-100, and radioactivity was counted via liquid scintillation. Dose response curves were generated by fitting fractional inhibition (I) to the expression I = Imax × [inhibitor]/([inhibitor] + IC50).
as §2
(§6) (A) SLC1A4 dose response curves for substrate activated anion currents using two-electrode voltage clamp of Xenopus lavies oocytes (−30 mV). […] (B) SLC1A5 dose response curve for substrate activated anion currents using two-electrode voltage clamp (−30 mV). […] Extracellular solutions contained 50 mM NaSCN.

SLC1A4 (hASCT1) = biological target: T4, SLC1A4 (hASCT1) (Homo sapiens, UniProt P43007); assay: as above; format: cell-based
T4 construct: expressed in transfected cells; host or cells: Xenopus laevis oocytes (cRNA injection)
T4 sequence (P43007 1-532): T1 sequence (P43007 1-532)
Protocol: as §4, §5, §2, §6

ASCT = conditions: extracellular 300 µM; cited from earlier work
SLC1A4 [2] = conditions: concentrations up to 1 mM, oocytes expressing SLC1A4; cited from earlier work
SLC1A3 (EAAT1) = biological target: T5, SLC1A3 (EAAT1) (Homo sapiens, UniProt P43003); assay: TEVC in oocytes expressing glutamate transporter; format: cell-based; conditions: SLC1A3; applied at 1 mM
T5 construct: expressed in transfected cells; host or cells: Xenopus laevis oocytes (cRNA injection)
T5 sequence (P43003 whole entry): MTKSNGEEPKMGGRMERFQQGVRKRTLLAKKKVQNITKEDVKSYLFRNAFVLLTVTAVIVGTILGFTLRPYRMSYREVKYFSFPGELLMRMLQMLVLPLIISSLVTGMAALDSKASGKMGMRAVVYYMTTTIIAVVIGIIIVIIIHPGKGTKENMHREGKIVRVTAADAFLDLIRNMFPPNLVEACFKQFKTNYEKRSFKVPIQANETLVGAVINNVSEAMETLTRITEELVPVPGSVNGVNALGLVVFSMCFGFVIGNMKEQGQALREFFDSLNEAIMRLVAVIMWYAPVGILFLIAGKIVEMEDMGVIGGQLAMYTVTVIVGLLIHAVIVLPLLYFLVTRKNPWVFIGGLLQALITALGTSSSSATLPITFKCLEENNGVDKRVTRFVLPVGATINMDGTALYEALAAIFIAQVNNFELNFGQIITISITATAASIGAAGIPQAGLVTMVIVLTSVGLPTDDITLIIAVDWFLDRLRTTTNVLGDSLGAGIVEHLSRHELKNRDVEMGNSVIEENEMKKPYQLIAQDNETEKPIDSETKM
Protocol: as §4
(§7) BPOHP activity was evaluated against the glutamate transporters paralogs within the SLC1A gene family (SLC1A 1–3) as well as at neutral amino acid transporters that share common ligand substrates with the SLC1 family including SLC38A1,2, and 4 (ATA1, ATA2, ATA3) and heteromeric transporters SLC7A10+SLC3A2 (asc-1/4f2).
as §5, §2
(§8) Figure SM-2 TEVC from oocytes expressing SLC1A1-3 transporters.
(§9) (1 picture or pasted object on this page, not shown here)

SLC1A1 (EAAT3) = biological target: T6, SLC1A1 (EAAT3) (Homo sapiens, UniProt P43005); assay: TEVC in oocytes expressing glutamate transporter; format: cell-based; conditions: SLC1A1; applied at 1 mM
T6 construct: expressed in transfected cells; host or cells: Xenopus laevis oocytes (cRNA injection)
T6 sequence (P43005 1-524): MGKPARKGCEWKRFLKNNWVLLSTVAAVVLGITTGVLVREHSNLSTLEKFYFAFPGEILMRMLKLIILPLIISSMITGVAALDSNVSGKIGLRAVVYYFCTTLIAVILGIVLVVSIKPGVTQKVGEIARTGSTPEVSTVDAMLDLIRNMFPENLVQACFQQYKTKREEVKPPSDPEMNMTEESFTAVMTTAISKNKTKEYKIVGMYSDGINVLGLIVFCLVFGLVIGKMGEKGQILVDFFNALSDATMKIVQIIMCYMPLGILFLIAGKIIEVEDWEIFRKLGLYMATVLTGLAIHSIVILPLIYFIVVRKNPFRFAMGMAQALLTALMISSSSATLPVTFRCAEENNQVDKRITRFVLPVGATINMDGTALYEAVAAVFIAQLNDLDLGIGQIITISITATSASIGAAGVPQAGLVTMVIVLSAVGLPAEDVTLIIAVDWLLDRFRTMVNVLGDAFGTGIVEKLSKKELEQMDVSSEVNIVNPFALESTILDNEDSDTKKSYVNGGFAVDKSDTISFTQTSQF
Protocol: as §4, §7, §5, §2, §8, §9

SLC1A5 = biological target: T7, SLC1A5 (Mus musculus, UniProt P51912); assay: [3H]L-Gln radiolabeled uptake competition in oocytes; format: cell-based
T7 construct: expressed in transfected cells; host or cells: Xenopus laevis oocytes (cRNA injection)
T7 sequence (P51912 1-553): T2 sequence (P51912 1-553)
Protocol: as §5, §6

SLC1A4 [3] = system: SLC1A4; set-up: method as in PMID 14502423; conditions: cited from earlier work
SLC38A2 (ATA2) = biological target: T8, SLC38A2 (ATA2) (Homo sapiens, UniProt Q96QD8); assay: TEVC electrogenic coupled currents in oocytes; format: cell-based; conditions: induced currents
T8 construct: expressed in transfected cells; host or cells: Xenopus laevis oocytes (cRNA injection)
T8 sequence (Q96QD8 1-506): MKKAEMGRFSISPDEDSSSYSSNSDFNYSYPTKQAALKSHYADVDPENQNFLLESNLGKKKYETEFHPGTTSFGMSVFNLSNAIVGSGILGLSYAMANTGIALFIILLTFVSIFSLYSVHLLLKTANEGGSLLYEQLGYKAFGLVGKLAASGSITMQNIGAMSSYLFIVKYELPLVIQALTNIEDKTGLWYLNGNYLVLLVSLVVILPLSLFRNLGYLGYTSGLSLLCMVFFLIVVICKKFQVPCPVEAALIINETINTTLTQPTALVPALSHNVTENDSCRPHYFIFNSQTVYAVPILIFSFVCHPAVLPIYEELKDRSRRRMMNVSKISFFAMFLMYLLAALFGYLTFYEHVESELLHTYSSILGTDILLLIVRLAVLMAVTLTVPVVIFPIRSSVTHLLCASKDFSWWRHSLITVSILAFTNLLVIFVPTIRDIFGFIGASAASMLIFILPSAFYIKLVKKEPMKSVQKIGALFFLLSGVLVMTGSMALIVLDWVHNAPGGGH
Protocol: as §4, §7, §5
as §2, with “Electrodes (0.2–1.0 MΩ) were filled with 3M KCl and the recording chamber was grounded with an agar bridge.” left out, “conductance. […]” for “conductance.”

## O=C(O)[C@@H]1C[C@H](O)CN1 [compound 1, cis-4-hydroxy-L-proline, reference compound]
SLC1A4 [1]
  concentration at which leak anion current is blocked: above 500 µM
mSLC1A5
  concentration at which leak anion current is blocked: above 500 µM
SLC1A5 (mASCT2)
  substrate currents: did not induce detectable substrate currents
SLC1A4 (hASCT1)
  substrate currents: did not induce detectable substrate currents

## O=C(O)[C@@H]1CCCN1 [L-proline]
ASCT
  heteroexchange release of intracellular radiolabeled ASCT substrates: capable of inducing heteroexchange release
SLC1A4 [2]
  chloride currents: does not elicit detectable chloride currents

## O=C(O)[C@@H]1C[C@@H](O)CN1 [4-HP, trans-4-hydroxy-L-proline, reference compound]
SLC1A3 (EAAT1)
  TEVC current response or block: No TEVC current response or block was observed
SLC1A1 (EAAT3)
  TEVC current response or block: No TEVC current response or block was observed
SLC1A5
  IC50: 108 µM
SLC1A4 [3]
  increase in affinity for SLC1A4 over L-proline: approximately 20 fold
SLC38A2 (ATA2)
  Km: 3.1 mM
